In data set [1] the target is T1, human albumin (HA) (Homo sapiens, UniProt P02768). The data set is described as follows: SPR Langmuir isotherm of HA adsorption on ligand-functionalized sensor chips. It is filed as binding. The following applies: read-out: Kd of HA on SPR sensor modified with different ligands.
Protocol: Langmuir Isotherm: HA was dissolved in PB to make solutions with concentration range from 0.1 mg/mL to 2.0 mg/mL for adsorption study. Such HA solutions were pumped through the flow cell in low to high sequence with 20 min. adsorption time for each solution. Between each HA adsorption session, buffer was used to rinse off unbound protein residue for 20 min. PB signal from selected reference channels was used as baseline.
Prior to further analysis, the raw SPR data, absolute maximum absorption angle versus time, was referenced to a baseline reading. A 3-point running average was applied to reduce noise.
The values of SPR signal shift (in degrees) induced by HA solutions of different concentrations were manually identified. For Langmuir adsorption model fitting, the SPR signal shifts were converted to fractional occupancy of adsorption sites (θ) by assuming 0% and 100% site occupancy under 0 mg/mL and 2 mg/mL HA solution treatment, respectively. After plotting the concentration on x-axis and θ on y-axis, the data was fitted to a Langmuir isotherm model with equation
The adsorption constant, Ka, was obtained under the best fitting condition. The desorption constant.
The target in data set [2] is T1, human albumin (HA). Description: SPR adsorption and desorption cycles of HA on functionalized chips with release agents. The following applies: for SPR angle shift after HA binding: 2 mg/mL HA, functionalized SPR chip; for Release percentage (highest observed; %) NaSCN (2M): release agent NaSCN 2M; for Release percentage (highest observed; %) SDS (35 mM): release agent SDS 35 mM; for Release percentage (highest observed; %) pH 3.6: release by pH 3.6 buffer; for release of bound HA, SPR results: CB chips, quoted for comparison with column. It is filed as binding. On the procedure:
SPR tests: A temperature controlled NanoSPR8 Model 481 device with a 4-channel flow cell was used and calibration and warm up were performed (2 hr) prior to tests. Two flow cell channels were set as reference in all tests. Basic solution with surfactant (0.1 M NaOH and 1% SDS). acidic solution (0.1 M HCl), and water were used to clean the testing flow cell and tubing system.
A phosphate buffer solution (PB) for SPR studies was prepared by dissolving 21.48 g Na2HPO4 and 3.11 g KH2PO4 in 1 L Milli-Q water for SPR tests. With this buffer a variety of solutions were prepared: NaCl. Na2SO4 and NaSCN was dissolved in the PB to prepare a 2 M solution. Sodium dodecyl sulfate (SDS) solution of 1 wt % (˜35 mM) was prepared by dissolving SDS in PB with aid of bath sonication. Fatty acid solutions were made by pipetting fatty acid into PB and bath sonicating. Linoleic acid solution (LA) included 1.8 μL of LA and 10 mL PB. Fatty acid mix solution (FA mix) was prepared by dispersing 1.8 μL linoleic acid, 1.05 μL oleic acid and 1.08 μL palmitic acid in 10 mL PB. FA mix was an inhomogeneous emulsion due to the limited solubility of fatty acids even with the aid of bath sonication.
[…] The test was carried out in sequence of HA solution, buffer rinse, releasing agent rinse, buffer rinse, in cycles after an initial PB rinse. Three absorption and desorption cycles were performed on each sample for repeatability/stability. The first two cycles used the same release agents of interest and the third cycle used a reference release agent, usually 2 M NaSCN.
Percentage of HA released by different release agents was calculated by dividing the value difference between the […] adsorption SPR peak shift value (‘Adsorb’ in FIG. 7) and post-release signal value (‘Release’ in FIG. 7) using
SPR shift has a strong dependence on solution conditions, thus one can only compare shift signals after a buffer rinse. The initial sensor baseline is set to zero. For the first cycle, after initial HA exposure and buffer rinse a shift of 0.225 is seen corresponding to full HA coverage. After LA exposure and buffer rinse a drop in shift 0.122 is seen instead of the ideal zero if HA is completely released to initial state. The percent released is calculated as (0.225-0.122)/0.225 or ˜46%. […] Even though the total amount of captured protein remains stable, an increasing amount of un-released protein over cycles was observed. Un-releasable protein was expected due to fouling onto unprotected surface of desorbed surface chemistry and practical limitations of buffer rinse times. […] SPR angle shifts and releasability percent as a function of surface functionalization and release chemical are summarized in Table 2.

Data set [3] has as its target T2, human albumin indoxyl sulfate complex (HA-IS) (Homo sapiens, UniProt P02768).
T2 construct: purchased Sigma-Aldrich
The data set is described as follows: Adsorption column of CB-functionalized agarose beads with HA-IS, BCA assay of eluent. It counts as binding. The note with it: for release of HA bound to the column: release capacity compared to binding capacity. From the text: Adsorption column (set-up): Devcon 5-minute epoxy in Dev-tube (ITW Polymer Adhesives, USA) was used on all epoxied parts of the column and was allowed to cure for an hour before use. Agarose beads functionalized with Cibacron Blue dye and suspended in 20% ethanol and 0.1 M KH2PO4 (Blue Sepharose Fast Flow 6, GE Healthcare, USA) was obtained and used as-is.
As shown at FIGS. 5A and 5C, glass tube 15a holds agarose beads functionalized with human albumin binding chemistry Cibacron Blue dye, and a barbed inlet/outlet 15b with Luer lock and needle tip is included to flow a solution in and out of glass tube 15a. An interchangeable solution reservoir feed 15c is included. Specifically, glass tube 15a (inner diameter=4 mm) was cut to 4.1 cm (0.52 mL volume). Two sheets of 10.0 μm pore size Teflon membrane filters (Sterlitech Corp., USA) covered the eluent end of the tube and were sealed around the edge with larger diameter elastic tubing (Tygon SE-200, Saint-Gobain Corp., USA) with excess membrane trimmed by knife. The tubing was secured to the tube via glass-compatible glue (Loctite, Henkel AG & Co. KGaA. Germany) and then epoxied to prevent air leakage. The beads in their suspension fluid (0.739 mL total slurry) were pipetted into the tube on top of the membrane seal and drained to form a bed of beads. The other end of the tube was sealed with membrane filters and tubing in a similar manner. Both ends 15b of the bead bed tube were connected to a Luer lock needle assembly that were epoxied to input tubing to prevent fluid leakage. The solution reservoir 15c included a syringe and a Luer lock connection. The column was suspended vertically and syringe pump (Model NE 300, New Era Pump Systems, Inc., USA) set to 4.0 mL/min with 125-250 μL samples collected at time points with lag time experimentally accounted for. Replacing of solutions occurred by switching out the syringe at the base of the Luer lock needle assembly in 15b, ensuring no air bubbles were introduced.
A phosphate buffer (PB) (pH 7.4) for the adsorption column was prepared to mimic the salt composition of human blood serum. 144.3 mg/L CaCl2), 4.26 g/L Na2HPO4, 612.4 mg/L KH2PO4, 85.7 mg/L MgCl2, and 4.68 g/L NaCl were dissolved in HPLC-grade submicron filtered water under stirring and heat, then filtered through a 10.0 μm membrane filter. NaCl was purchased from EMD Chemicals Inc. (Germany): all other chemicals were obtained from Sigma-Aldrich (USA). NaSCN, indoxyl sulfate, and HA solutions were prepared by simple dissolution in PB. 0.58 mM linoleic acid (LA) solution was prepared by pipetting liquid LA into phosphate buffer and sonicating in 10-minute increments until micelles were formed and evenly distributed, indicated by the solution becoming uniformly cloudy. Solutions of micro BCA protein assay were prepared as instructed in a kit obtained from Thermo Scientific (USA).
In cycles, phosphate buffer, HA-IS complex solution, phosphate buffer, and then release agents (linoleic acid or NaSCN) were pumped through the column and the eluent was collected. CB-functionalized beads were expected to adsorb HA-IS and cause the dissociation of IS from the captured HA. Release agents were expected to cause desorption of captured IS-free HA from the adsorption column. These adsorption and desorption behaviors were studied by optical absorbance at 280 nm of the eluent proportional to HA-IS concentration. […] Then both LA and NaSCN release HA from the adsorption column. […] Without wishing to be bound by theory, it is thought that the delayed LA release was caused by LA micelles dissolving at the buffer solution exchange front where concentration drops below the critical micelle concentration (0.1 mM) giving more free-floating molecules of LA capable of release. This release profile may be optimized by multiple shorter buffer/LA cycles.
Bicinchoninic acid (BCA) assay is a protein sensitive quantification method which was used in this example to measure the concentration of HA. […]

Data set [4] has as its target HSA (Homo sapiens, UniProt P02768). The data set is described as follows: HSA adsorption/desorption on Cibacron blue column with LA solutions of varying concentration. It counts as binding. The note with it: LA 8 μl/10 ml, HSA 40 mg/ml, CB beads.
Protocol: To test the aforementioned hypotheses, a series of experiments were conducted using LA solutions of varying concentrations and HSA solutions with a concentration of 40 mg/ml. […] The first adsorption-desorption cycle was executed with phosphate buffer serving as a mock release agent to reveal the actual desorption strength of the release agent. The amount of HSA released by LA was quantified by integrating the area beneath the release session curve and subtracting the baseline corresponding to the phosphate buffer rinse. This value represents the fraction of HSA that can be manipulated by the LA solution in a reversible manner. In this context, the adsorption of this fraction of HSA onto the Cibacron blue functionalized beads (CB beads) was considered reversible by LA. Subsequently, the reversible adsorption capacity of CB beads and the albumin release peak height, from FIG. 11A, were plotted against the LA solution concentration, as shown in FIG. 11B.
For data set [5] the following is noted: cited from earlier work.
Where [6] appears, read: with respect to a monolayer protein binding signal strength.

By Kd is commonly meant the constant that tells how readily two partners part at equilibrium.

Read-outs that look alike come from different tables or passages of the source.

T1 sequence (P02768 25-609): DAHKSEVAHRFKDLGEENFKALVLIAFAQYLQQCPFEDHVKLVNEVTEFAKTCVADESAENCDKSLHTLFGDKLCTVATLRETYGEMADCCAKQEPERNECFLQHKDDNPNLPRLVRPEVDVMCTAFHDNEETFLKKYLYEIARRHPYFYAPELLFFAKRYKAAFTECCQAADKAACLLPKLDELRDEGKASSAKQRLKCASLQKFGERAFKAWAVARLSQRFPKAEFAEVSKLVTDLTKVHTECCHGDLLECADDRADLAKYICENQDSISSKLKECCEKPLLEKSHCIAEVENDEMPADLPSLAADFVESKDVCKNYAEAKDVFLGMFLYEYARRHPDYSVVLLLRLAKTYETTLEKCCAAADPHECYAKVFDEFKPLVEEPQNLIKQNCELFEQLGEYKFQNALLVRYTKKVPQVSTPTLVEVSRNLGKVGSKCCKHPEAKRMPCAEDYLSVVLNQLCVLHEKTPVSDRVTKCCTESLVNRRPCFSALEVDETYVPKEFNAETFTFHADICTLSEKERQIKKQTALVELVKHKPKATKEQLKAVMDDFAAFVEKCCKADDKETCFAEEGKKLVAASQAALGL
T2 sequence (P02768 25-609, one chain of several): as the sequence (P02768 25-609) above
Chain of HSA (P02768 25-609): as above

As to `Nc1c(S(=O)(=O)O)cc(Nc2ccc(Nc3nc(Cl)nc(Nc4ccccc4S(=O)(=O)O)n3)c(S(=O)(=O)O)c2)c2c1C(=O)c1ccccc1C2=O` [Cibacron Blue], the Kd in data set [1] came to 3 µM. Besides, the “SPR angle shift after HA binding” value in data set [2] (listed as CB) was determined as 0.25 °. For the same molecule, the “SPR angle shift after HA binding” value in data set [2] (listed as Cibacron Blue (CB)) is recorded as roughly 0.25 °. For the same molecule, the “monolayer averaged SPR signal shift” value in data set [2] (average over chips (CB n=76; capric acid n=50)) was determined as 0.23 °. The “Release percentage (highest observed; %) Na2SO4 (2M)” value in data set [2] (release agent Na2SO4 2M) was found to be 12.7%. In addition, in data set [2] (release agent NaCl 2M), the “Release percentage (highest observed; %) NaCl (2M)” value was found to be 34%. Also, in data set [2], the “Release percentage (highest observed; %) NaSCN (2M)” value came to 78.0%, the “Release percentage (highest observed; %) SDS (35 mM)” value is listed as 93.0% and the “Release percentage (highest observed; %) pH 3.6” value is 0%. Further, the “Release percentage (highest observed; %) FA mix” value in data set [2] (release agent fatty acid mix) was found to be 49.5%. Further, in data set [2] (release agent lbp 0.1 mM), the “Release percentage (highest observed; %) lbp (0.1 mM)” value turned out to be 0%. In addition, in data set [2] (release agent linoleic acid 0.6 mM), the “Release percentage (highest observed; %) LA (0.6 mM)” value was found to be 44.1%. Besides, in data set [2] (setting [6]), the “Human serum albumin desorption percent, release agent Fatty Acid Mix” value turned out to be 37.4 ± 14.2%; the “Human serum albumin desorption percent, release agent Linoleic Acid” value was determined as 31.0 ± 18.9%; the “Human serum albumin desorption percent, release agent NaSCN” value came out at 65.0 ± 12.3%.
Turning to `Nc1ccc2c(O)c(N=Nc3ccc(N=Nc4ccc(N=Nc5cc(S(=O)(=O)[O-])c6cccc(S(=O)(=O)[O-])c6c5)c5ccccc45)c4ccc(S(=O)(=O)[O-])cc34)c(S(=O)(=O)[O-])cc2c1.[Na+].[Na+].[Na+].[Na+]` [Direct Blue 71], the Kd in data set [1] (HA 0.1-2.0 mg/mL in PB, Langmuir fit, Kd=1/Ka) amounted to 1.1 µM. In data set [2], the “SPR angle shift after HA binding” value is roughly 0.19 °, the “Release percentage (highest observed; %) NaSCN (2M)” value came to 0% and the “Release percentage (highest observed; %) SDS (35 mM)” value worked out at 0%. Besides, in data set [2] (listed as DB71), the “SPR angle shift after HA binding” value turned out to be 0.19 °.
Consider `CCCCC/C=C\C/C=C\CCCCCCCC(=O)O` [LA, linoleic acid], for which, in data set [2] (SPR), the “release of bound HA, SPR results” value amounted to 31%. Moreover, in data set [2] (SPR, CB surface, concentrations of about 0.5 μg/mL), the “albumin release capacity on CB surface” value is reported as 44.1%. For the same molecule, the release capacity is on record as roughly 0.2 μmol HA/mL beads in data set [3] (CB-agarose bead column, summary b116); 13.5 mg/mL in data set [3] (CB-agarose bead column, summary b116, per mL beads); 0.177 μmol HA/mL beads in data set [3] (cycle 1, CB-agarose bead column, BCA assay); 0.232 μmol HA/mL beads in data set [3] (cycle 2, CB-agarose bead column, BCA assay). In addition, in data set [3] (Cibacron blue agarose beads, plasma compatible linoleic acid as release agent), the release amounts worked out at 0.23 μmol HA/mL beads. Further, the “release of HA bound to the column” value in data set [3] is “at least 47%”. The “HSA desorption capacity, previous study” value in data set [3] (value from the previous study) is 15.3 mg/ml beads. Besides, in data set [4], the HSA desorption capacity is reported as 19.44 mg/ml beads. In data set [5], the solubility in water entry is “insoluble”.
As for `N#C[S-].[Na+]` [NaSCN, reference compound], the “release of bound HA, SPR results” value in data set [2] (SPR) is reported as 65%. The molecule also gave a release capacity in data set [3] (cycle 3, CB-agarose bead column, BCA assay) of 0.292 μmol HA/mL beads. In addition, the “release of HA bound to the column” value in data set [3] is no less than 79%.
In the case of `CCCCCCCC` [Octane (C8; Alkane), Octane], in data set [2], the “SPR angle shift after HA binding” value is reported as roughly 0.11 °, the “Release percentage (highest observed; %) NaSCN (2M)” value turned out to be 51.4% and the “Release percentage (highest observed; %) SDS (35 mM)” value is 29.5%. In addition, the “SPR angle shift after HA binding” value in data set [2] (listed as Octane) was determined as 0.110 °.
As to `N[C@@H](Cc1c[nH]c2ccccc12)C(=O)O` [Tryptophan (COOH term), Tryptophan], in data set [2], the “SPR angle shift after HA binding” value is recorded as roughly 0.19 °, the “Release percentage (highest observed; %) NaSCN (2M)” value turned out to be 0% and the “Release percentage (highest observed; %) pH 3.6” value is on record as 0%. Moreover, in data set [2] (listed as tryptophan of —COOH terminus), the “SPR angle shift after HA binding” value came out at 0.19 °.
As for `N[C@@H](Cc1c[nH]c2ccccc12)C(=O)O` [Tryptophan (NH2 term), Tryptophan], in data set [2], the “SPR angle shift after HA binding” value is on record as roughly 0.17 °, the “Release percentage (highest observed; %) NaSCN (2M)” value is reported as 15.0%, the “Release percentage (highest observed; %) SDS (35 mM)” value was determined as 0% and the “Release percentage (highest observed; %) pH 3.6” value is given as 0%. In addition, the “SPR angle shift after HA binding” value in data set [2] (listed as tryptophan of —NH2 terminus) is on record as 0.170 °.

(Values after patent publication US20260166211A1, “SYSTEM FOR REMOVING PROTEIN BOUND UREMIC TOXINS DURING HEMODIALYSIS” (University of Washington, priority 2022, published 2026).)
